Measurements: US20090325959A1 (priority 2008, published 2009)

Experiments:
[1] = target: T1, ROCK1 (Homo sapiens, UniProt Q13464); assay: Rho kinase inhibition assay (IMAP fluorescence polarization), ROCK1; assay type: biochemical; details: Avg, 10 μM ATP;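 also: kinase reaction run 60 min at room temperature, then phosphorylated substrate captured on IMAP beads for 30 min, with fluorescence polarization read in mP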
T1 construct: purchased Upstate/Chemicon 14-601
Experimental: (§1) Following the pre-incubation, 10 μM ATP was added to initiate the reaction. After 60 minutes at room temperature, Molecular Devices IMAP™ binding solution was added to bind phosphorylated substrate. After 30 minutes of incubation in the presence of the IMAP™ beads, the fluorescence polarization was read and the ratio was reported as mP. IC50 values for compounds and EC50 values for ATP were calculated using the Prism software from Graphpad.

[2] = target: T2, ROCK2 (Homo sapiens, UniProt O75116); assay: Rho kinase inhibition assay (IMAP fluorescence polarization), ROCK2; assay type: biochemical; details: 10 μM ATP; read-out: ROCK2 Ki, Avg;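 also: kinase reaction started with 10 µM ATP and run 60 min at room temperature, then phosphorylated substrate captured on IMAP beads for 30 min and fluorescence polarization read in mP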
T2 construct: purchased Upstate/Chemicon 14-451
T2 sequence (O75116 11-552 limits assumed): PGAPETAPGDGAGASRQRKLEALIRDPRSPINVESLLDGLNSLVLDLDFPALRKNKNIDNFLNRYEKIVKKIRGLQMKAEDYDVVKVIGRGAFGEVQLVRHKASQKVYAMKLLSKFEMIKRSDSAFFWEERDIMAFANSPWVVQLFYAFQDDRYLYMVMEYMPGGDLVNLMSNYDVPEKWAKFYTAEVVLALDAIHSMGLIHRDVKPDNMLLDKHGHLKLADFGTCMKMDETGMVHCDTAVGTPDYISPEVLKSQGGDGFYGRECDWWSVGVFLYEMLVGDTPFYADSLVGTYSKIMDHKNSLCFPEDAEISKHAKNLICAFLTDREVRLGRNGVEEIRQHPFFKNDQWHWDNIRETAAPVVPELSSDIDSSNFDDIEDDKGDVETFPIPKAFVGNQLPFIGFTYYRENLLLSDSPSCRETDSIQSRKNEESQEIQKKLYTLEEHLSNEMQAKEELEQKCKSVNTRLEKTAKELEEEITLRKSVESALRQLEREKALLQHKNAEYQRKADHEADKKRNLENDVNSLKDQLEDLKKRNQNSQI
Experimental: as §1

T1 sequence (Q13464 17-535 limits assumed): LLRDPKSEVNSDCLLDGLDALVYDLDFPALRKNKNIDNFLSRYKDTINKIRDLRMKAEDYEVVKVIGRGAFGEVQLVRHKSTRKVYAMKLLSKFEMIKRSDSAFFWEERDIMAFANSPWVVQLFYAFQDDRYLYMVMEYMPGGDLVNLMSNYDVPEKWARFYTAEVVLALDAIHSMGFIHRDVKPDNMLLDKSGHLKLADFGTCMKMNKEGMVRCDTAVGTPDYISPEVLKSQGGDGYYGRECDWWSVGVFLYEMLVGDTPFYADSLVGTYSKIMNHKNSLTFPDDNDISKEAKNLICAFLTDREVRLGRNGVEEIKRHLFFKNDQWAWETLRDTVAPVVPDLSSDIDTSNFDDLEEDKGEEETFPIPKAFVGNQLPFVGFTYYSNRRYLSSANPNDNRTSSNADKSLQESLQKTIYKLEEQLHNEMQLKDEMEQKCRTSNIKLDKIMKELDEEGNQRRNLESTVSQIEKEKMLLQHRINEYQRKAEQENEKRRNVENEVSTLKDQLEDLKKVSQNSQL

Row | SMILES | Ki [1] [nM] | Ki [2] [nM]
1 | c1cc(CN2CCC[C@@H](Nc3ccc4[nH]ncc4c3)C2)cc(C2CC2)c1 [Compound 1.202, (R)-N-(1-(3-cyclopropylbenzyl)piperidin-3-yl)-1H-indazol-5-amine] | 203 | 33
2 | CCOc1cccc(CN2CCC[C@@H](Nc3ccc4[nH]ncc4c3)C2)c1 [Compound 1.203, (R)-N-(1-(3-ethoxybenzyl)piperidin-3-yl)-1H-indazol-5-amine] | 329 | 41.6
3 | CS(=O)(=O)c1ccc(CN2CCC[C@@H](Nc3ccc4[nH]ncc4c3)C2)cc1 [Compound 1.205, (R)-N-(1-(4-(methylsulfonyl)benzyl)piperidin-3-yl)-1H-indazol-5-amine] | 498 | 46.4
4 | CN(c1cccc(CN2CCC[C@@H](Nc3ccc4[nH]ncc4c3)C2)c1)S(C)(=O)=O [Compound 1.207, (R)-N-(3-((3-(1H-indazol-5-ylamino)piperidin-1-yl)methyl)phenyl)-N-methylmethanesulfonamide] | 516 | 43.7
5 | CCOC(=O)c1ccc(CN2CCC[C@@H](Nc3ccc4[nH]ncc4c3)C2)cc1 [Compound 1.209, (R)-ethyl 4-((3-(1H-indazol-5-ylamino)piperidin-1-yl)methyl)benzoate] | 4590 | 470
6 | Brc1cccc(CN2CCC[C@@H](Nc3ccc4[nH]ncc4c3)C2)c1 [Compound 1.210, (R)-N-(1-(3-bromobenzyl)piperidin-3-yl)-1H-indazol-5-amine] | 95.1 | 25.5
7 | CC(=O)NCCOc1cccc(CN2CCC[C@@H](Nc3ccc4[nH]ncc4c3)C2)c1 [Compound 1.211, (R)-N-(2-(3-((3-(1H-indazol-5-ylamino)piperidin-1-yl)methyl)phenoxy)ethyl)acetamide] | 395 | 57.6
8 | CC1(C)OC[C@H](COc2cccc(CN3CCC[C@H](Nc4ccc5[nH]ncc5c4)C3)c2)O1 [Compound 1.214, N-((S)-1-(3-(((S)-2,2-dimethyl-1,3-dioxolan-4-yl)methoxy)benzyl)piperidin-3-yl)-1H-indazol-5-amine] | 546 | 143
9 | CCOC(=O)c1ccc(CN2CCC[C@H](Nc3ccc4[nH]ncc4c3)C2)cc1 [Compound 1.216, (S)-ethyl 4-((3-(1H-indazol-5-ylamino)piperidin-1-yl)methyl)benzoate] | 1890 | 403
10 | CC(=O)NCCOc1cccc(CN2CCC[C@H](Nc3ccc4[nH]ncc4c3)C2)c1 [Compound 1.218, (S)-N-(2-(3-((3-(1H-indazol-5-ylamino)piperidin-1-yl)methyl)phenoxy)ethyl)acetamide] | 402 | 30.7
11 | NC(=O)c1cccc(CN2CCC[C@@H](Nc3ccc4[nH]ncc4c3)C2)c1 [Compound 1.221, (R)-3-((3-(1H-indazol-5-ylamino)piperidin-1-yl)methyl)benzamide] | 264 | 30
12 | CC1(C)OC[C@H](COc2cccc(CN3CCC[C@@H](Nc4ccc5[nH]ncc5c4)C3)c2)O1 [Compound 1.222, N-((R)-1-(3-(((S)-2,2-dimethyl-1,3-dioxolan-4-yl)methoxy)benzyl)piperidin-3-yl)-1H-indazol-5-amine] | 229 | 75.5
13 | O=C(OCCOc1cccc(CN2CCC[C@H](Nc3ccc4[nH]ncc4c3)C2)c1)c1ccccc1 [Compound 1.224, (S)-2-(3-((3-(1H-indazol-5-ylamino)piperidin-1-yl)methyl)phenoxy)ethyl benzoate] | 487 | 77.5
14 | O=C(OCCOc1cccc(CN2CCC[C@@H](Nc3ccc4[nH]ncc4c3)C2)c1)c1ccccc1 [Compound 1.225, (R)-2-(3-((3-(1H-indazol-5-ylamino)piperidin-1-yl)methyl)phenoxy)ethyl benzoate] | 605 | 189
15 | OCCOc1ccc(CN2CCC[C@H](Nc3ccc4[nH]ncc4c3)C2)cc1 [Compound 1.228] | 1880 | 140
16 | OCCCOc1cccc(CN2CCC[C@H](Nc3ccc4[nH]ncc4c3)C2)c1 [Compound 1.230, (S)-3-(3-((3-(1H-indazol-5-ylamino)piperidin-1-yl)methyl)phenoxy)propan-1-ol] | 346 | 35.3
17 | OCCCOc1cccc(CN2CCC[C@@H](Nc3ccc4[nH]ncc4c3)C2)c1 [Compound 1.231, (R)-3-(3-((3-(1H-indazol-5-ylamino)piperidin-1-yl)methyl)phenoxy)propan-1-ol] | 305 | 60.3
18 | OCc1ccc(CN2CCC[C@@H](Nc3ccc4[nH]ncc4c3)C2)cc1 [Compound 1.232, (R)-(4-((3-(1H-indazol-5-ylamino)piperidin-1-yl)methyl)phenyl)methanol] | 137 | 20.8
19 | COc1ccc(CN2CCC[C@H](Nc3ccc4[nH]ncc4c3)C2)cc1NS(C)(=O)=O [Compound 1.234, (S)-N-(5-((3-(1H-indazol-5-ylamino)piperidin-1-yl)methyl)-2-methoxyphenyl)methanesulfonamide] | 1740 | 166
20 | NCc1cccc(CN2CCC[C@@H](Nc3ccc4[nH]ncc4c3)C2)c1 [Compound 1.235, (R)-N-(1-(3-(aminomethyl)benzyl)piperidin-3-yl)-1H-indazol-5-amine] | 1390 | 335

Row | SMILES | Ki [1] [nM] | Ki [2] [nM]
21 | Cc1ccc(CN2CCC[C@H](Nc3ccc4[nH]ncc4c3)C2)cc1OCC(=O)O [Compound 1.240] | 625 | 60.1
22 | Cc1ccc(CN2CC[C@@H](Nc3ccc4[nH]ncc4c3)C2)cc1 [Compound 1.242, (R)-N-(1-(4-methylbenzyl)pyrrolidin-3-yl)-1H-indazol-5-amine] | 71.4 | 17.5
23 | FC(F)(F)c1cccc(CN2CC[C@@H](Nc3ccc4[nH]ncc4c3)C2)c1 [Compound 1.243, (R)-N-(1-(3-(trifluoromethyl)benzyl)pyrrolidin-3-yl)-1H-indazol-5-amine] | 219 | 84.3
24 | CS(=O)(=O)c1ccc(CN2CC[C@@H](Nc3ccc4[nH]ncc4c3)C2)cc1 [Compound 1.244, (R)-N-(1-(4-(methylsulfonyl)benzyl)pyrrolidin-3-yl)-1H-indazol-5-amine] | 683 | 139
25 | COc1ccc(CN2CC[C@@H](Nc3ccc4[nH]ncc4c3)C2)cc1 [Compound 1.245, (R)-N-(1-(4-methoxybenzyl)pyrrolidin-3-yl)-1H-indazol-5-amine] | 199 | 49.5
26 | c1cc(N2CCCC2)ccc1CN1CCC[C@@H](Nc2ccc3[nH]ncc3c2)C1 [Compound 1.248, (R)-N-(1-(4-(pyrrolidin-1-yl)benzyl)piperidin-3-yl)-1H-indazol-5-amine] | 2350 | 891
27 | c1cc(CN2CCC[C@@H](Nc3ccc4[nH]ncc4c3)C2)cc(-c2ccco2)c1 [Compound 1.250, (R)-N-(1-(3-(furan-2-yl)benzyl)piperidin-3-yl)-1H-indazol-5-amine] | 247 | 45.8
28 | CC(CN1CCC[C@@H](Nc2ccc3[nH]ncc3c2)C1)c1ccccc1 (stereo partly drawn) [Compound 1.251, N-((3R)-1-(2-phenylpropyl)piperidin-3-yl)-1H-indazol-5-amine] | 207 | 49.2
29 | Clc1ccc(CN2CC[C@@H](Nc3ccc4[nH]ncc4c3)C2)cc1Cl [Compound 1.254, (R)-N-(1-(3,4-dichlorobenzyl)pyrrolidin-3-yl)-1H-indazol-5-amine] | 116 | 39
30 | c1cn(-c2ccc(CN3CCC[C@H](Nc4ccc5[nH]ncc5c4)C3)cc2)cn1 [Compound 1.255] | 3560 | 359
31 | c1c[nH]c(CN2CCC[C@H](Nc3ccc4[nH]ncc4c3)C2)n1 [Compound 1.256, (S)-N-(1-((1H-imidazol-2-yl)methyl)piperidin-3-yl)-1H-indazol-5-amine] | 700 | 85.5
32 | Cn1ccnc1CN1CCC[C@H](Nc2ccc3[nH]ncc3c2)C1 [Compound 1.257, (S)-N-(1-((1-methyl-1H-imidazol-2-yl)methyl)piperidin-3-yl)-1H-indazol-5-amine] | 1270 | 168
33 | c1ccc(Cn2ccnc2CN2CCC[C@@H](Nc3ccc4[nH]ncc4c3)C2)cc1 [Compound 1.263, (R)-N-(1-((1-benzyl-1H-imidazol-2-yl)methyl)piperidin-3-yl)-1H-indazol-5-amine] | 2130 | 453
34 | OCC1COc2ccc(CN3CCC[C@@H](Nc4ccc5[nH]ncc5c4)C3)cc2O1 (stereo partly drawn) [Compound 1.264, (7-(((R)-3-(1H-indazol-5-ylamino)piperidin-1-yl)methyl)-2,3-dihydrobenzo[b][1,4]dioxin-2-yl)methanol] | 494 | 59.4
35 | CNC(=O)Nc1cccc(CN2CCC[C@@H](Nc3ccc4[nH]ncc4c3)C2)c1 [Compound 1.265, (R)-1-(3-((3-(1H-indazol-5-ylamino)piperidin-1-yl)methyl)phenyl)-3-methylurea] | 162 | 21.6
36 | O=C(Nc1cccc(CN2CCC[C@@H](Nc3ccc4[nH]ncc4c3)C2)c1)N1CCCC1 [Compound 1.266, (R)-N-(3-((3-(1H-indazol-5-ylamino)piperidin-1-yl)methyl)phenyl)pyrrolidine-1-carboxamide] | 53.8 | 17.1
37 | CCN(CC)C(=O)Nc1cccc(CN2CCC[C@@H](Nc3ccc4[nH]ncc4c3)C2)c1 [Compound 1.267, (R)-3-(3-((3-(1H-indazol-5-ylamino)piperidin-1-yl)methyl)phenyl)-1,1-diethylurea] | 98.8 | 23.9
38 | OCCn1ccc2cc(CN3CCC[C@@H](Nc4ccc5[nH]ncc5c4)C3)ccc21 [Compound 1.268, (R)-2-(5-((3-(1H-indazol-5-ylamino)piperidin-1-yl)methyl)-1H-indol-1-yl)ethanol] | 404 | 40.7
39 | OCCn1ccc2cc(CN3CCC[C@H](Nc4ccc5[nH]ncc5c4)C3)ccc21 [Compound 1.269, (S)-2-(5-((3-(1H-indazol-5-ylamino)piperidin-1-yl)methyl)-1H-indol-1-yl)ethanol] | 239 | 22.8
